Key:
Format in all cases: physicochemical
[1] = Hygroscopicity evaluation by Dynamic Vapor Sorption (DVS) with XRPD of the solids after DVS
Procedure: Dynamic Vapor Sorption (DVS) was obtained using a Surface Measurement Systems (SMS) DVS Intrinsic. The relative humidity at 25° C. were calibrated against deliquescence point of LiCl, Mg (NO3)2 and KCl.

[2] = Chemical stability by HPLC-UV at 275 nm and 254 nm (Table 9)
Procedure: High Pressure Liquid Chromatography (HPLC) data were obtained according to Tables 6 or 7, below:
A standard stock was dissolved with diluent in a volumetric flask (e.g., 25 mg in 25 mL). This stock was vortexed and sonicated 10 sec to dissolve, and then diluted 1:10, 1:4, and 1:2 either in volumetric flasks or in HPLC vials to generate a standard curve. […] Where appropriate, a blank was created to accurately replicate the matrix of the analytical sample, and peaks appearing in the blank were identified before integration and quantification using Chemstation software.
The chemical stability of Succinate Form A was determined using HPLC-UV at 275 nm and 254 nm.
The chemical stability of Form G was determined using HPLC-UV at 275 nm and 254 nm.

[3] = Aqueous solubility estimation of Compound 2 Form G, Form O and Form I at RT (Example 13, Table 27)
Procedure: Aqueous solubility tests at RT were conducted on the two potential anhydrates, Form G and O, and the hydrated Form I. About 3 mg of each form was weighed into a 2-mL vial. […] of water was added and stirred thoroughly at RT with the speed of 800 RPM.

[4] = Slurry competition between Compound 2 Form G and Form O for stability evaluation (Example 10, Table 24); settings: IPAc and MTBE, RT and 50° C., 24 hours
Procedure: The slurry competition experiments between the two anhydrates, Form G and Form O, were performed in two solvents, IPAc and MTBE, at RT and 50° C. for stability evaluation. Form O was dissolved in IPAc and MTBE respectively to get saturated solutions. Then, similar masses of Form G and Form O were added into a 2-mL vial, upon which the corresponding saturated solution was added to give the slurry, which was stirred at RT or 50° C. for 24 hours. The solids collected were analyzed by XRPD to confirm the form change.

[5] = Physical stability of Compound 2 Form G over 42 days at varying conditions by XRPD, PLM, DSC/TGA (Table 23)
Procedure: The stability of Compound 2 Form G was tested over 42 days at varying conditions and is reported below in Table 23 and in FIG. 61:
On Day 38, stability samples at 50° C. were exposed to temperatures of approximately 85° C. for 24 hours.

[6] = Critical aw between Compound 2 Form G and Form I, slurry turnover in H2O/IPAc (Example 12, Table 26); settings: H2O/IPAc, RT and 50° C., 24 hrs; except aw of 0.8 at RT (close to amorphous)
Procedure: To investigate the critical aw between hydrated Form I and the stable anhydrate, Form G, slurry turnover of Form I and Form G was conducted in a co-solvent system (H2O/IPAc) with different aw at RT and 50° C. Similar mass of Form G and Form I were added into a 2-mL vial, followed by adding solvent and stirring at RT or 50° C. for 24 hrs. The solids obtained were analyzed by XRPD to confirm the form change.

[7] = Slurry turnover of Compound 2 Form B, Form I and Form G (Example 11, Table 25); settings: IPAc and MTBE, RT or 50° C., 24 hours
Procedure: To further study the form identity of Form B and Form I, slurry turnover experiments were performed in two solvents with the addition of Form G. Form B was dissolved in IPAc and MTBE respectively to get saturated solutions. Similar mass of Form B, G and I were weighed into a 2-mL vial, upon which the corresponding saturated solution was added to give the slurry, which was stirred at RT or 50° C. After slurry for 24 hours, the solids obtained were analyzed by XRPD.

[8] = ambient conditions and 25° C./60% RH open, 42 days, 254 nm
[9] = 50° C., closed, 42* days (Day 38 excursion to approximately 85° C. for 24 hours)

Compound: C[C@H]1CCc2c(ccc(-c3cnn(C4CCNCC4)c3)c2OC2CCC2)N1C(=O)C1CC1.O=C(O)CCC(=O)O [Form G, (S)-(5-cyclobutoxy-2-methyl-6-(1-(piperidin-4-yl)-1H-pyrazol-4-yl)-3,4-dihydroquinolin-1(2H)-yl)(cyclopropyl)methanone succinate]
- solid form after the DVS test ([1]; XRPD of solids after DVS, succinate): amorphous
- water absorbed above 70% RH (DVS) ([1]; above 70% RH): about 25.19 % (wt/wt)
- hygroscopicity (DVS) ([1]; absorption up to 80% RH, 25° C., succinate): high hygroscopicity
- claim of the expected Compound 2 content by HPLC-UV ([2]; all stability samples, 275 nm): 95-107 % claim
- impurity increase by HPLC-UV [2, 8]: no significant impurity increase
- reduction in purity by HPLC-UV [2, 8]: no reduction in purity
- Observation Initial ([3]; about 3 mg in 50 μL water, initial, succinate): Clear
- solubility at 2 h ([3]; thermodynamic from solid, water, stirring 2 hrs at 800 RPM): > 60 mg/mL
- form obtained from slurry competition of Form G and Form O (XRPD) [4]: converted to Form G completely
- DSC endotherm Temp ([5]; 25° C./60% RH open, 1 days): 125.46 °C
- DSC endotherm ΔH ([5]; 25° C./60% RH open, 1 days): 66.76 J/g
- TGA % weight loss before 150° C. ([5]; 25° C./60% RH open, 1 days): 0.4580%
- DSC endotherm Temp ([5]; 25° C./60% RH open, 3 days): 125.61 °C
- DSC endotherm ΔH ([5]; 25° C./60% RH open, 3 days): 63.86 J/g
- TGA % weight loss before 150° C. ([5]; 25° C./60% RH open, 3 days): 0.5433%
- DSC endotherm Temp ([5]; 25° C./60% RH open, 7 days): 125.68 °C
- DSC endotherm ΔH ([5]; 25° C./60% RH open, 7 days): 64.19 J/g
- TGA % weight loss before 150° C. ([5]; 25° C./60% RH open, 7 days): 0.5129%
- DSC endotherm Temp ([5]; 25° C./60% RH open, 14 days): 125.64 °C
- DSC endotherm ΔH ([5]; 25° C./60% RH open, 14 days): 65.95 J/g
- TGA % weight loss before 150° C. ([5]; 25° C./60% RH open, 14 days): 0.5232%
- DSC endotherm Temp ([5]; 25° C./60% RH open, 21 days): 125.94 °C
- DSC endotherm ΔH ([5]; 25° C./60% RH open, 21 days): 64.03 J/g
- TGA % weight loss before 150° C. ([5]; 25° C./60% RH open, 21 days): 0.6097%
- DSC endotherm Temp ([5]; 25° C./60% RH open, 42 days): 126.50 °C
- DSC endotherm ΔH ([5]; 25° C./60% RH open, 42 days): 57.76 J/g
- TGA % weight loss before 150° C. ([5]; 25° C./60% RH open, 42 days): 0.6016%
- flowability by visual assessment ([5]; 50° C. sample after being exposed to higher temperatures): slight reduction in flowability
- physical stability (XRPD, DSC/TGA, PLM) ([5]; 50° C. samples, exposed on Day 38 to approximately 85° C. for 24 hours): physically stable
- DSC endotherm Temp [5, 9]: 121.80 °C
- DSC endotherm ΔH [5, 9]: 51.32 J/g
- TGA % weight loss before 150° C. [5, 9]: 0.7707%
- DSC endotherm Temp ([5]; 50° C., closed, 1 days): 125.53 °C
- DSC endotherm ΔH ([5]; 50° C., closed, 1 days): 67.41 J/g
- TGA % weight loss before 150° C. ([5]; 50° C., closed, 1 days): 0.4716%
- DSC endotherm Temp ([5]; 50° C., closed, 3 days): 125.97 °C
- DSC endotherm ΔH ([5]; 50° C., closed, 3 days): 59.90 J/g
- TGA % weight loss before 150° C. ([5]; 50° C., closed, 3 days): 0.4670%
- DSC endotherm Temp ([5]; 50° C., closed, 7 days): 125.97 °C
- DSC endotherm ΔH ([5]; 50° C., closed, 7 days): 65.47 J/g
- TGA % weight loss before 150° C. ([5]; 50° C., closed, 7 days): 0.5022%
- DSC endotherm Temp ([5]; 50° C., closed, 14 days): 125.16 °C
- DSC endotherm ΔH ([5]; 50° C., closed, 14 days): 64.27 J/g
- TGA % weight loss before 150° C. ([5]; 50° C., closed, 14 days): 0.5893%
- DSC endotherm Temp ([5]; 50° C., closed, 21 days): 125.21 °C
- DSC endotherm ΔH ([5]; 50° C., closed, 21 days): 64.69 J/g
- TGA % weight loss before 150° C. ([5]; 50° C., closed, 21 days): 0.5702%
- DSC endotherm Temp ([5]; Initial, 0 days): 125.51 °C
- DSC endotherm ΔH ([5]; Initial, 0 days): 63.56 J/g
- TGA % weight loss before 150° C. ([5]; Initial, 0 days): 0.5459%
- flow properties by visual assessment ([5]; ambient 42 days, 25° C./75% RH 42 days, 50° C. 21 days): good flow properties
- DSC endotherm Temp ([5]; ambient, closed, 1 days): 125.59 °C
- DSC endotherm ΔH ([5]; ambient, closed, 1 days): 62.59 J/g
- TGA % weight loss before 150° C. ([5]; ambient, closed, 1 days): 0.5454%
- DSC endotherm Temp ([5]; ambient, closed, 3 days): 125.61 °C
- DSC endotherm ΔH ([5]; ambient, closed, 3 days): 63.01 J/g
- TGA % weight loss before 150° C. ([5]; ambient, closed, 3 days): 0.5338%
- DSC endotherm Temp ([5]; ambient, closed, 7 days): 125.41 °C
- DSC endotherm ΔH ([5]; ambient, closed, 7 days): 63.00 J/g
- TGA % weight loss before 150° C. ([5]; ambient, closed, 7 days): 0.5540%
- DSC endotherm Temp ([5]; ambient, closed, 14 days): 125.52 °C
- DSC endotherm ΔH ([5]; ambient, closed, 14 days): 63.86 J/g
- TGA % weight loss before 150° C. ([5]; ambient, closed, 14 days): 0.4133%
- DSC endotherm Temp ([5]; ambient, closed, 21 days): 125.38 °C
- DSC endotherm ΔH ([5]; ambient, closed, 21 days): 67.51 J/g
- TGA % weight loss before 150° C. ([5]; ambient, closed, 21 days): 0.8085%
- DSC endotherm Temp ([5]; ambient, closed, 42 days): 125.35 °C
- DSC endotherm ΔH ([5]; ambient, closed, 42 days): 66.56 J/g
- TGA % weight loss before 150° C. ([5]; ambient, closed, 42 days): 0.4578%
- change in physical form by XRPD, PLM or DSC/TGA ([5]; storage conditions below 75% RH, after 42 days): no significant change in physical form
- form obtained from slurry of Form G and Form I at different aw (XRPD) [6]: completely converted to Form G
- form obtained from slurry of a mixture of Form B, G and I (XRPD) [7]: converted to Form G completely

Reference: US20210261528A1, “SALTS OF (S)-(5-CYCLOBUTOXY-2-METHYL-6-(1-(PIPERIDIN-4-YL)-1H-PYRAZOL-4-YL)-3,4-DIHYDROQUINOLIN-1(2H)-YL)(CYCLOPROPYL)METHANONE AND SOLID FORMS THEREOF” (FORMA Therapeutics, Inc., priority 2018, published 2021)
